Tests used:
[1] = Fibril formation by transmission electron microscopy; format: physicochemical; conditions: negative stain TEM
Method: Fibrillated PSMα1 and PSMα4 samples were collected following the ThT fibrillation kinetics assay (as described above) by combining the contents of 2–3 wells from the plate. Solutions were centrifuged at 21,000 × g and the supernatant was discarded. The pellet containing the fibrils was re-suspended in 20 μl of ultra-pure water.
Fibril formation of the short segments, IIKIIK, IIKVIK, LFKFFK and KLFKFFK, was examined for peptides dissolved directly from the powder form. IIKVIK from PSMα1 and IIKIIK from PSMα4 were re-suspended to 20 mM with 75% DMSO in ultra-pure water and incubated for about 1 week at room temperature (Fig. 2b). LFKFFK and KLFKFFK from PSMα3 were re-suspended in ultra-pure water to 10 mM. LFKFFK was incubated for about a month and KLFKFFK was incubated for 14 days at room temperature (Fig. 3b).
Five-microliter samples were applied directly onto copper TEM grids with support films of Formvar/Carbon (Ted Pella), which were charged by glow-discharge (PELCO easiGlow, Ted Pella) immediately before use. Grids were allowed to adhere for 2 min and negatively stained with 5 μl of 2% uranyl acetate solution. Micrographs were recorded using FEI Tecnai G2 T20 S-Twin transmission electron microscope operated at an accelerating voltage of 200 KeV (located at the Department of Materials Science & Engineering at the Technion, Israel), FEI Tecnai G2 T12 TEM operated at an accelerating voltage of 120 kV (located at the Russell Berrie Electron Microscopy Center of Soft Matter at the Technion, Israel). Images were recorded digitally by a Gatan US 1000 CCD camera using the DigitalMicrograph® software.

Micrococcus luteus = experiment: Disc diffusion assay testing antibacterial activity; format: cell-based; conditions: peptide 50 mg ml−1 in ultra-pure water (LFKFFK, KLFKFFK) or DMSO (IIKVIK, IIKIIK) loaded on discs, LB-agar, incubated over-night, coincides with activity in solution (Supplementary Fig. 4)
Method: (§1) Micrococcus luteus (an environmental isolate) was a kind gift from Prof. Charles Greenblatt from the Hebrew university in Jerusalem, Israel. An inoculum was grown in Luria-Bertani (LB) medium at 30 °C with 220 rpm shaking overnight. Staphylococcus hominis (ATTC 27844) and Staphylococcus aureus (ATCC 25923) were purchased from ATCC, USA. An inoculum was grown in brain-heart infusion (BHI) media at 37 °C with 220 rpm shaking overnight.
(§2) Bacterial cultures were grown overnight as described above and diluted 1000-fold to a fresh media until growth reached to optical density of ~0.4 measured at 600 nm (OD600). The refreshed cultures were plated on LB-agar or BHI-agar according to the bacterial strain. The antibacterial activity of PSMα segments was examined: Lyophilized peptides were dissolved in ultra-pure water (LFKFFK and KLFKFFK) or DMSO (IIKVIK and IIKIIK) to a final concentration of 50 mg ml^−1. The concentrated peptide solutions were loaded on blank antimicrobial susceptibility discs (Oxoid, UK). Discs loaded with ultra-pure water or DMSO were used as controls. The discs were gently placed on bacteria plated agar and incubated over-night at the appropriate temperatures.

Staphylococcus hominis = experiment: as above; format: cell-based; conditions: ATTC 27844, peptide 50 mg ml−1 in ultra-pure water (LFKFFK, KLFKFFK) or DMSO (IIKVIK, IIKIIK) loaded on discs, BHI-agar, incubated over-night, coincides with activity in solution (Supplementary Fig. 4)
Method: as §1, §2

[2] = Fibril thermal-stability assay (TEM); format: physicochemical; conditions: 10 mM (LFKFFK in ultra-pure water, IIKIIK in DMSO), 3 days at room temperature, 50 °C for 5 min, then cooled at room temperature 20 min
Method: For the fibril thermal-stability assay (Fig. 5), peptides were dissolved to 10 mM (LFKFFK in ultra-pure water and IIKIIK in DMSO) and incubated at room temperature for 3 days. Samples were applied directly onto copper TEM grids and stained as described above. The samples were then incubated at 50 °C in a pre-heated thermoblock for 5 min and immediately applied onto TEM grids. The samples were then allowed to cool down at room temperature for 20 min and applied onto TEM grids. Micrographs were recorded as described above.

Staphylococcus aureus = experiment: Disc diffusion assay testing antibacterial activity; format: cell-based; conditions: ATCC 25923, peptide 50 mg ml−1 in ultra-pure water loaded on discs, BHI-agar, incubated over-night
Method: as §1, §2

[3] = Thioflavin T fluorescence fibrillation kinetics assay; conditions: 50 µM peptide, 200 µM ThT; Tris buffer pH 7.5 (PSMα1 and mutant) or ultra-pure water (PSMα4 and mutant); 37 °C; about 100 h; mean of triplicates
Method: Final concentrations for each reaction were 50 µM peptide (PSMα1, PSMα4, or their mutants) and 200 µM ThT. Blank solutions were also prepared for each reaction, containing everything but the peptides. The reaction mixture was carried out in a black 96-well flat-bottom plate (Greiner bio-one) covered with a thermal seal film (EXCEL scientific) and incubated in a plate reader (CLARIOstar BMG LABTECH) at a temperature of 37 °C with 500 rpm shaking for 85 s before each reading cycle, and up to 1000 cycles of 6 min each. Measurements were made in triplicates. Fluorescence was measured by excitation at 438 ± 20 nm and emission at 490 ± 20 nm over a period of about 100 h. All triplicate values were averaged, appropriate blanks were subtracted, and the resulting values were plotted against time. Calculated standard errors of the mean are presented as error bars. The entire experiment was repeated at least three times on different days.

[4] = 20 mM in 75% DMSO in ultra-pure water, about 1 week at room temperature
[5] = 10 mM in ultra-pure water, room temperature, LFKFFK about a month, KLFKFFK 14 days

Row | Substance | fibril formation, electron micrographs [1, 4] | antibacterial activity against M. luteus (Micrococcus luteus) | antibacterial activity against S. hominis (Staphylococcus hominis) | thermal stability of fibrils [2] | fibril formation, electron micrographs [1, 5] | toxicity to S. aureus (Staphylococcus aureus) | Thioflavin T binding [3]
1 | IIKIIK [spine segment of PSMα4; acetylated N-terminus and amidated C-terminus, or unmodified termini for crystallography] | fibrils | do not elicit antibacterial activity | do not elicit antibacterial activity | remain stable |  |  | 
2 | IIKVIK [spine segment of PSMα1; acetylated N-terminus and amidated C-terminus, or unmodified termini for crystallography] | fibrils | do not elicit antibacterial activity | do not elicit antibacterial activity |  |  |  | 
3 | KLFKFFK [one-residue longer PSMα3 segment] |  | dose-dependent antibacterial activity | dose-dependent antibacterial activity |  | straight and twisted crystalline fibrils | not toxic | 
4 | LFKFFK [truncated segment of PSMα3; acetylated N-terminus and amidated C-terminus, or unmodified termini for crystallography] |  | dose-dependent antibacterial activity | dose-dependent antibacterial activity | dissolve upon heating to 50 °C, and reform upon cooling | fibrils and nano-crystals | not toxic | 
5 | MAIVGTIPKPIKAIIDIFAK |  |  |  |  |  |  | no ThT binding
6 | MGIIAGPIPVIKSLIEQFTGK |  |  |  |  |  |  | no ThT binding
